In paper PMC9154192 (PLoS Biology, 2022):
Like-named read-outs stand apart in the source and are kept apart here. Marks after values point to notes of the source that are not given here.

Assay type: in vivo, SD rats
Method: Toxicity studies were conducted at Biotoxtech (Korea) under review and approval from IACUC (170842, 180144, 170889) of Biotoxtech. All animals used in the toxicity test were purchased from OrientBio (Korea).
A subchronic toxicity study was performed for PP2S. Female and male rats were divided into a control group (0 mg/kg/day, n = 15), a low-dose group (167 mg/kg/day, n = 10), a medium-dose group (500 mg/kg/day, n = 10), and a high-dose group (1,500 mg/kg/day, n = 15), respectively. Thus, there were a total of 8 groups. The drug was administered by oral gavage at 10 mL/kg body weight daily for 4 weeks. Five animals each in the control and high-dose groups continued their treatments for 2 more weeks. Clinical symptoms were observed, and body weight was measured during the test period for a total of 6 weeks; 0.5% methyl cellulose 1,500 cP (Sigma, USA) in water for injection (JW Pharmaceutical, Korea) was used as a vehicle. Control animals were treated with only the same volume of the vehicle.
Organ weights were measured while conducting a 4-week repeated oral toxicity study for PP2S. For all animals, wet weight of the following organs were measured, and the relative organ weight ratio to the fasted body weight was calculated. Organs with left and right sides were weighed together. […] In addition, changes observed with statistical significance in females of the recovery group were minor changes, which were not observed in the main test group. They were not accompanied by other related changes. Thus, they were judged to have no toxicological significance.

[1] = female, 167 mg/kg, dosing period
[2] = female, 500 mg/kg, dosing period
[3] = female, 1,500 mg/kg, dosing period
[4] = female, 1,500 mg/kg, recovery period
[5] = male, 1,500 mg/kg, dosing period
[6] = male, 1,500 mg/kg, recovery period
[7] = up to 1,500 mg/kg/day oral, 4 weeks of administration and 2 weeks of recovery

SMILES: CCCCOc1ccc2cc(CN3C(=O)CC[C@H]3C(=O)OC)c3cc(OC)c(OC)cc3c2c1 [PP2S, Methyl (S)-1-((3-butoxy-6,7-dimethoxyphenanthren-9-yl)methyl)-5-oxopyrrolidine-2-carboxylate]
- effect on organ weights (all administration groups, male and female, main test and recovery group): effect of the test substance was not recognized
- B.W. (mean) [1]: 218.0 g
- Mean absolute organ weight, Adrenal [1]: 0.0775 g
- Mean absolute organ weight, Heart [1]: 0.87 g
- Mean absolute organ weight, Kidney [1]: 1.77 g
- Mean absolute organ weight, Liver [1]: 6.63 g
- Mean absolute organ weight, Lung [1]: 1.09 g
- Mean absolute organ weight, Ovary [1]: 0.0898 g
- Mean absolute organ weight, Pituitary [1]: 0.0140 g
- Mean absolute organ weight, Spleen [1]: 0.50 g
- Mean absolute organ weight, Uterus [1]: 0.52 g
- Mean relative organ weight, Adrenal [1]: 0.0357 g/100g body weight
- Mean relative organ weight, Brain [1]: 0.83 g/100g body weight
- Mean relative organ weight, Heart [1]: 0.40 g/100g body weight
- Mean relative organ weight, Kidney [1]: 0.81 g/100g body weight
- Mean relative organ weight, Liver [1]: 3.05 g/100g body weight
- Mean relative organ weight, Lung [1]: 0.50 g/100g body weight
- Mean relative organ weight, Ovary [1]: 0.0410 g/100g body weight
- Mean relative organ weight, Pituitary [1]: 0.0065 g/100g body weight
- Mean relative organ weight, Spleen [1]: 0.23 g/100g body weight
- Mean relative organ weight, Uterus [1]: 0.24 g/100g body weight
- B.W. (mean) [2]: 224.1 g
- Mean absolute organ weight, Adrenal [2]: 0.0755 g
- Mean absolute organ weight, Heart [2]: 0.89 g
- Mean absolute organ weight, Kidney [2]: 1.70 g
- Mean absolute organ weight, Liver [2]: 6.67 g
- Mean absolute organ weight, Lung [2]: 1.10 g
- Mean absolute organ weight, Ovary [2]: 0.0846 g
- Mean absolute organ weight, Pituitary [2]: 0.0139 g
- Mean absolute organ weight, Spleen [2]: 0.47 g
- Mean absolute organ weight, Uterus [2]: 0.53 g
- Mean relative organ weight, Adrenal [2]: 0.0337 g/100g body weight
- Mean relative organ weight, Brain [2]: 0.78 g/100g body weight
- Mean relative organ weight, Heart [2]: 0.40 g/100g body weight
- Mean relative organ weight, Kidney [2]: 0.76 g/100g body weight
- Mean relative organ weight, Liver [2]: 2.97 g/100g body weight
- Mean relative organ weight, Lung [2]: 0.49 g/100g body weight
- Mean relative organ weight, Ovary [2]: 0.0381 g/100g body weight
- Mean relative organ weight, Pituitary [2]: 0.0062 g/100g body weight
- Mean relative organ weight, Spleen [2]: 0.21 g/100g body weight
- Mean relative organ weight, Uterus [2]: 0.24 g/100g body weight
- B.W. (mean) [3]: 217.3 g
- Mean absolute organ weight, Adrenal [3]: 0.0730 g
- Mean absolute organ weight, Brain [3]: 1.86 g
- Mean absolute organ weight, Heart [3]: 0.84 g
- Mean absolute organ weight, Kidney [3]: 1.72 g
- Mean absolute organ weight, Liver [3]: 6.49 g
- Mean absolute organ weight, Lung [3]: 1.11 g
- Mean absolute organ weight, Ovary [3]: 0.0874 g
- Mean absolute organ weight, Pituitary [3]: 0.0139 g
- Mean absolute organ weight, Spleen [3]: 0.48 g
- Mean absolute organ weight, Uterus [3]: 0.47 g
- Mean relative organ weight, Adrenal [3]: 0.0335 g/100g body weight
- Mean relative organ weight, Brain [3]: 0.84 g/100g body weight
- Mean relative organ weight, Heart [3]: 0.38 g/100g body weight
- Mean relative organ weight, Kidney [3]: 0.79 g/100g body weight
- Mean relative organ weight, Liver [3]: 2.98 g/100g body weight
- Mean relative organ weight, Lung [3]: 0.51 g/100g body weight
- Mean relative organ weight, Ovary [3]: 0.0402 g/100g body weight
- Mean relative organ weight, Pituitary [3]: 0.0064 g/100g body weight
- Mean relative organ weight, Spleen [3]: 0.22 g/100g body weight
- Mean relative organ weight, Uterus [3]: 0.22 g/100g body weight
- B.W. (mean) [4]: 248.7 g
- Mean absolute organ weight, Adrenal [4]: 0.0723 g
- Mean absolute organ weight, Brain [4]: 1.86 g
- Mean absolute organ weight, Heart [4]: 0.91 g
- Mean absolute organ weight, Kidney [4]: 1.73 g
- Mean absolute organ weight, Liver [4]: 7.01 * g
- Mean absolute organ weight, Lung [4]: 1.17 * g
- Mean absolute organ weight, Ovary [4]: 0.1012 g
- Mean absolute organ weight, Pituitary [4]: 0.0154 g
- Mean absolute organ weight, Spleen [4]: 0.54 g
- Mean absolute organ weight, Uterus [4]: 0.54 g
- Mean relative organ weight, Adrenal [4]: 0.0291 g/100g body weight
- Mean relative organ weight, Brain [4]: 0.75 g/100g body weight
- Mean relative organ weight, Heart [4]: 0.37 g/100g body weight
- Mean relative organ weight, Kidney [4]: 0.69 g/100g body weight
- Mean relative organ weight, Liver [4]: 2.81 g/100g body weight
- Mean relative organ weight, Lung [4]: 0.48 g/100g body weight
- Mean relative organ weight, Ovary [4]: 0.0407 g/100g body weight
- Mean relative organ weight, Pituitary [4]: 0.0062 g/100g body weight
- Mean relative organ weight, Spleen [4]: 0.22 g/100g body weight
- Mean relative organ weight, Uterus [4]: 0.22 g/100g body weight
- B.W. (mean) (male, 167 mg/kg, dosing period): 363.4 g
- Mean absolute organ weight, Adrenal (male, 167 mg/kg, dosing period): 0.0619 g
- Mean absolute organ weight, Brain (male, 167 mg/kg, dosing period): 1.79 g
- Mean absolute organ weight, Heart (male, 167 mg/kg, dosing period): 1.33 g
- Mean absolute organ weight, Kidney (male, 167 mg/kg, dosing period): 2.59 g
- Mean absolute organ weight, Liver (male, 167 mg/kg, dosing period): 10.38 g
- Mean absolute organ weight, Lung (male, 167 mg/kg, dosing period): 1.42 g
- Mean absolute organ weight, Pituitary (male, 167 mg/kg, dosing period): 0.0109 g
- Mean absolute organ weight, Prostate (male, 167 mg/kg, dosing period): 0.40 g
- Mean absolute organ weight, Spleen (male, 167 mg/kg, dosing period): 0.69 g
- Mean absolute organ weight, Testis (male, 167 mg/kg, dosing period): 3.22 g
- Mean relative organ weight, Adrenal (male, 167 mg/kg, dosing period): 0.0170 g/100g body weight
- Mean relative organ weight, Brain (male, 167 mg/kg, dosing period): 0.54 g/100g body weight
- Mean relative organ weight, Heart (male, 167 mg/kg, dosing period): 0.37 g/100g body weight
- Mean relative organ weight, Kidney (male, 167 mg/kg, dosing period): 0.72 g/100g body weight
- Mean relative organ weight, Liver (male, 167 mg/kg, dosing period): 2.86 g/100g body weight
- Mean relative organ weight, Lung (male, 167 mg/kg, dosing period): 0.39 g/100g body weight
- Mean relative organ weight, Pituitary (male, 167 mg/kg, dosing period): 0.0030 g/100g body weight
- Mean relative organ weight, Prostate (male, 167 mg/kg, dosing period): 0.11 g/100g body weight
- Mean relative organ weight, Spleen (male, 167 mg/kg, dosing period): 0.19 g/100g body weight
- Mean relative organ weight, Testis (male, 167 mg/kg, dosing period): 0.89 g/100g body weight
- B.W. (mean) (male, 500 mg/kg, dosing period): 363.5 g
- Mean absolute organ weight, Adrenal (male, 500 mg/kg, dosing period): 0.0622 g
- Mean absolute organ weight, Brain (male, 500 mg/kg, dosing period): 1.74 g
- Mean absolute organ weight, Heart (male, 500 mg/kg, dosing period): 1.31 g
- Mean absolute organ weight, Kidney (male, 500 mg/kg, dosing period): 2.67 g
- Mean absolute organ weight, Liver (male, 500 mg/kg, dosing period): 10.46 g
- Mean absolute organ weight, Lung (male, 500 mg/kg, dosing period): 1.41 g
- Mean absolute organ weight, Pituitary (male, 500 mg/kg, dosing period): 0.0119 g
- Mean absolute organ weight, Prostate (male, 500 mg/kg, dosing period): 0.49 g
- Mean absolute organ weight, Spleen (male, 500 mg/kg, dosing period): 0.69 g
- Mean absolute organ weight, Testis (male, 500 mg/kg, dosing period): 3.32 g
- Mean relative organ weight, Adrenal (male, 500 mg/kg, dosing period): 0.0171 g/100g body weight
- Mean relative organ weight, Brain (male, 500 mg/kg, dosing period): 0.55 g/100g body weight
- Mean relative organ weight, Heart (male, 500 mg/kg, dosing period): 0.36 g/100g body weight
- Mean relative organ weight, Kidney (male, 500 mg/kg, dosing period): 0.74 g/100g body weight
- Mean relative organ weight, Liver (male, 500 mg/kg, dosing period): 2.87 g/100g body weight
- Mean relative organ weight, Lung (male, 500 mg/kg, dosing period): 0.39 g/100g body weight
- Mean relative organ weight, Pituitary (male, 500 mg/kg, dosing period): 0.0033 g/100g body weight
- Mean relative organ weight, Prostate (male, 500 mg/kg, dosing period): 0.14 g/100g body weight
- Mean relative organ weight, Spleen (male, 500 mg/kg, dosing period): 0.19 g/100g body weight
- Mean relative organ weight, Testis (male, 500 mg/kg, dosing period): 0.91 g/100g body weight
- B.W. (mean) [5]: 366.0 g
- Mean absolute organ weight, Adrenal [5]: 0.0630 g
- Mean absolute organ weight, Brain [5]: 1.81 g
- Mean absolute organ weight, Heart [5]: 1.33 g
- Mean absolute organ weight, Kidney [5]: 2.63 g
- Mean absolute organ weight, Liver [5]: 10.79 g
- Mean absolute organ weight, Lung [5]: 1.45 g
- Mean absolute organ weight, Pituitary [5]: 0.0113 g
- Mean absolute organ weight, Prostate [5]: 0.45 g
- Mean absolute organ weight, Spleen [5]: 0.74 g
- Mean absolute organ weight, Testis [5]: 3.35 g
- Mean relative organ weight, Adrenal [5]: 0.0172 g/100g body weight
- Mean relative organ weight, Brain [5]: 0.54 g/100g body weight
- Mean relative organ weight, Heart [5]: 0.37 g/100g body weight
- Mean relative organ weight, Kidney [5]: 0.72 g/100g body weight
- Mean relative organ weight, Liver [5]: 2.94 g/100g body weight
- Mean relative organ weight, Lung [5]: 0.40 g/100g body weight
- Mean relative organ weight, Pituitary [5]: 0.0031 g/100g body weight
- Mean relative organ weight, Prostate [5]: 0.12 g/100g body weight
- Mean relative organ weight, Spleen [5]: 0.20 g/100g body weight
- Mean relative organ weight, Testis [5]: 0.92 g/100g body weight
- B.W. (mean) [6]: 419.4 g
- Mean absolute organ weight, Adrenal [6]: 0.0595 g
- Mean absolute organ weight, Heart [6]: 1.36 g
- Mean absolute organ weight, Kidney [6]: 2.73 g
- Mean absolute organ weight, Liver [6]: 11.62 g
- Mean absolute organ weight, Lung [6]: 1.61 g
- Mean absolute organ weight, Prostate [6]: 0.59 g
- Mean absolute organ weight, Spleen [6]: 0.72 g
- Mean absolute organ weight, Testis [6]: 3.48 g
- Mean relative organ weight, Adrenal [6]: 0.0140 g/100g body weight
- Mean relative organ weight, Brain [6]: 0.48 g/100g body weight
- Mean relative organ weight, Heart [6]: 0.33 g/100g body weight
- Mean relative organ weight, Kidney [6]: 0.65 g/100g body weight
- Mean relative organ weight, Liver [6]: 2.76 g/100g body weight
- Mean relative organ weight, Lung [6]: 0.38 g/100g body weight
- Mean relative organ weight, Pituitary [6]: 0.0028 g/100g body weight
- Mean relative organ weight, Prostate [6]: 0.14 g/100g body weight
- Mean relative organ weight, Spleen [6]: 0.17 g/100g body weight
- Mean relative organ weight, Testis [6]: 0.83 g/100g body weight
- organ weight/histopathological changes (up to 1,500 mg/kg/day oral, 4 weeks): no organ weight/histopathological changes were observed
- change in body weight compared to control group [7]: did not lead to a significant change
- death or abnormal clinical symptoms [7]: did not cause death or abnormal clinical symptoms
